From PubChem BioAssay (NCI)
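48-hour exposure; five concentrations; linearly interpolated endpoints. Here, GI50 denotes the concentration required for 50% inhibition of growth. Definition used: TGI = concentration required for complete inhibition of growth.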

Experiments:
Assay in all cases: inhibition of tumour cell growth, NCI panel, 48 h
UACC-62 melanoma = tested on: UACC-62 melanoma
ACHN renal = tested on: ACHN renal
LOX IMVI melanoma = tested on: LOX IMVI melanoma
TK-10 renal = tested on: TK-10 renal
M14 melanoma = tested on: M14 melanoma
DU-145 prostate = tested on: DU-145 prostate
RXF 393 renal = tested on: RXF 393 renal
SNB-75 CNS = tested on: SNB-75 CNS
DMS 273 small cell lung = tested on: DMS 273 small cell lung

## Cc1ncc(C(=O)Nc2ccc(CN3CCN(C)CC3)c(C(F)(F)F)c2)cc1C#Cc1c(N)ncc2ccccc12
UACC-62 melanoma
  GI50: 0.246 µM
  TGI: 0.781 µM
ACHN renal
  GI50: 0.336 µM
  TGI: 0.732 µM
LOX IMVI melanoma
  GI50: 0.173 µM
  TGI: 0.605 µM
TK-10 renal
  GI50: 0.623 µM
  TGI: 1.12 µM
M14 melanoma
  GI50: 0.0923 µM
  TGI: 0.476 µM
DU-145 prostate
  GI50: 0.502 µM
  TGI: 0.997 µM
RXF 393 renal
  GI50: 0.465 µM
  TGI: 0.915 µM
SNB-75 CNS
  GI50: 0.458 µM
  TGI: 0.975 µM

## Nc1nccc2c1ncn2C1OC(CO)C(O)C1O (centres undefined)
UACC-62 melanoma
  GI50: > 100 µM
  TGI: > 100 µM
ACHN renal
  GI50: > 100 µM
  TGI: > 100 µM
LOX IMVI melanoma
  GI50: 94.1 µM
  TGI: > 100 µM
TK-10 renal
  GI50: > 100 µM
  TGI: > 100 µM
M14 melanoma
  GI50: > 100 µM
  TGI: > 100 µM
DU-145 prostate
  GI50: > 100 µM
  TGI: > 100 µM
RXF 393 renal
  GI50: 48.5 µM
  TGI: > 100 µM
SNB-75 CNS
  GI50: > 100 µM
  TGI: > 100 µM

## COc1ccc2c(CCNC(=O)/C=C/c3ccccc3)c(C(C)=O)[nH]c2c1[N+](=O)[O-]
UACC-62 melanoma
  TGI: 36.1 µM
ACHN renal
  TGI: > 100 µM
LOX IMVI melanoma
  TGI: 27.3 µM
M14 melanoma
  TGI: > 100 µM
DMS 273 small cell lung
  TGI: 29.2 µM

## C[C@@H](COCCC(=O)N1CCN(c2ncc(C(F)(F)F)cn2)CC1)Nc1cn[nH]c(=O)c1C(F)(F)F
UACC-62 melanoma
  GI50: 45.3 µM
  TGI: > 100 µM
ACHN renal
  GI50: 28.3 µM
  TGI: > 100 µM
LOX IMVI melanoma
  GI50: 27.9 µM
  TGI: > 100 µM
TK-10 renal
  GI50: > 100 µM
  TGI: > 100 µM
M14 melanoma
  GI50: 32.9 µM
  TGI: > 100 µM
DU-145 prostate
  GI50: 37.6 µM
  TGI: > 100 µM
RXF 393 renal
  GI50: 32.8 µM
  TGI: > 100 µM
SNB-75 CNS
  GI50: 47.8 µM
  TGI: > 100 µM

## C=C1C(OC/C=C/COC2O[C@@H]3O[C@@]4(C)CC[C@H]5[C@H](C)CC[C@@H](C2=C)[C@@]35OO4)O[C@@H]2O[C@@]3(C)CC[C@H]4[C@H](C)CC[C@@H]1[C@@]24OO3 (some centres undefined)
UACC-62 melanoma
  GI50: 2.01 µM
  TGI: 69.1 µM
ACHN renal
  GI50: 1.72 µM
  TGI: 17.3 µM
LOX IMVI melanoma
  GI50: 0.14 µM
  TGI: 2.09 µM
TK-10 renal
  GI50: 0.492 µM
  TGI: 16.9 µM
M14 melanoma
  GI50: 10.7 µM
  TGI: 27.5 µM
DU-145 prostate
  GI50: 15.5 µM
  TGI: 37.6 µM
RXF 393 renal
  GI50: 0.166 µM
  TGI: 5.93 µM
SNB-75 CNS
  GI50: 7.99 µM
  TGI: 31.1 µM

## NCc1c(C(N)=O)ncn1Cc1ccccc1
UACC-62 melanoma
  TGI: > 100 µM
ACHN renal
  TGI: > 100 µM
LOX IMVI melanoma
  TGI: > 100 µM
TK-10 renal
  TGI: > 100 µM
M14 melanoma
  TGI: > 100 µM
RXF 393 renal
  TGI: > 100 µM
DMS 273 small cell lung
  TGI: > 100 µM
SNB-75 CNS
  TGI: > 100 µM

## Nc1cc(S(N)(=O)=O)ccc1SSc1ccc(S(N)(=O)=O)cc1N
UACC-62 melanoma
  TGI: > 100 µM
ACHN renal
  TGI: > 100 µM
LOX IMVI melanoma
  TGI: > 100 µM
TK-10 renal
  TGI: > 100 µM
M14 melanoma
  TGI: > 100 µM
DU-145 prostate
  TGI: > 100 µM
RXF 393 renal
  TGI: > 100 µM
SNB-75 CNS
  TGI: > 100 µM

## CCOC(=O)C(C(=O)OCC)C(=O)c1ccccc1C(=O)c1ccccc1
UACC-62 melanoma
  TGI: > 100 µM
ACHN renal
  TGI: > 100 µM
LOX IMVI melanoma
  TGI: > 100 µM
TK-10 renal
  TGI: > 100 µM
M14 melanoma
  TGI: > 100 µM
DU-145 prostate
  TGI: > 100 µM
RXF 393 renal
  TGI: > 100 µM
SNB-75 CNS
  TGI: > 100 µM

## NS(=O)(=O)c1ccc(-n2ncc3c(Nc4ccccc4)ncnc32)cc1
UACC-62 melanoma
  GI50: 42.8 µM
  TGI: > 100 µM
ACHN renal
  GI50: 38.5 µM
  TGI: > 100 µM
LOX IMVI melanoma
  GI50: 14.9 µM
  TGI: 70 µM
TK-10 renal
  GI50: 19.1 µM
  TGI: > 100 µM
M14 melanoma
  GI50: 32.8 µM
  TGI: > 100 µM
DU-145 prostate
  GI50: 35.6 µM
  TGI: > 100 µM
RXF 393 renal
  GI50: 29.6 µM
  TGI: > 100 µM
SNB-75 CNS
  GI50: 33.5 µM
  TGI: > 100 µM
